Literature values in patent publication US20240398903A1, “COMPOSITION AND METHODS OF TREATMENT USING […] - ENHANCED SUPPLEMENTATION” (Xygenyx Inc., priority 2023, published 2024).

Key:
[1] = mice
[2] = tested on: skin; settings: penetration enhancer for transdermal drugs
[3] = tested on: wide dynamic range neurons in the ventroposterolateral nucleus of the thalamus; settings: in vivo
[4] = in vivo
[5] = tested on: skin; settings: topical, concentrations 0.5-5%
[6] = as compared to α-tocopherol (factor 1.0)
[7] = even when dietary intake occurs in equal portions
[8] = in vivo; remark: listed apart in the source

CC(CN)C(=O)O [L-BAIBA, L-beta-aminoisobutyric acid]
tolerated dose [1]: 10-100 mg/kg of bodyweight

CC(C)[C@@H]1CC[C@@H](C)C[C@H]1O [Menthol]
increase of drug uptake via the transdermal route (factor) [2]: ≥ 10

CCCCCc1cc(O)c2c(c1)OC(C)(C)C1CCC(C)=CC21 (stereo not drawn) [THC, Δ-9-tetrahydrocannabinol]
power in mediating pain relative to morphine [3]: ten times more powerful than morphine

CCNC(=O)CC[C@H](N)C(=O)O [Theanine]
dose considered safe and well-tolerated [4]: up to 400 mg per day

C=CCCCCCCCCC(=O)N[C@@H](Cc1ccccc1)C(=O)O [UP, Undecylenoyl phenylalanine]
time of treatment to skin lightening effects [5]: ≥ 7 days

CC12CCC(CC1)C(C)(C)O2 [eucalyptol, 1,8-epoxy-p-menthane]
increase of drug uptake via the transdermal route (factor) [2]: more than 10

Cc1c(C)c2c(c(C)c1O)CC[C@@](C)(CCC[C@H](C)CCC[C@H](C)CCCC(C)C)O2 [α-tocopherol]
reducing the risk of coronary disease (dietary supplementation, doses up to 400 IU/day): up to 34% | reduce the risk of developing neurodegenerative diseases such as Alzheimer's Syndrome or dementia (dietary supplementation, doses up to 400 IU/day, controlled trials): ≤ 24% | reduction in the development of age-related cataracts (in combination with 10-20 mg β-carotene and 400-500 mg vitamin C): 23% | relative biological activity [6]: 1.0

Cc1cc(O)c(C)c2c1O[C@](C)(CCC[C@H](C)CCC[C@H](C)CCCC(C)C)CC2 [β-tocopherol]
relative biological activity [6]: 0.5

Cc1c(O)cc2c(c1C)O[C@](C)(CCC[C@H](C)CCC[C@H](C)CCCC(C)C)CC2 [γ-tocopherol]
relative biological activity [6]: 0.1 | concentration in vivo relative to α-tocopherol [7]: roughly 10%

Cc1cc(O)cc2c1O[C@](C)(CCC[C@H](C)CCC[C@H](C)CCCC(C)C)CC2 [δ-tocopherol]
relative biological activity [6]: 0.03

HGH: hormone comprising a peptide chain that is synthesized in the pituitary gland
biological half-life [8]: 10-20 minutes
